PubChem BioAssay (NCI)
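A five-concentration, 48-hour dose response in 96-well plates underlies each endpoint, interpolated linearly between surrounding concentrations. GI50 is the concentration that inhibits growth by half. At the TGI there is no net growth.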

Assays:
Test in all cases: growth of human tumour cells (NCI), 48 h; in the data active = GI50 below about 0.43 µM; inactive = the rest
786-0 renal = tested on: 786-0 renal
A498 renal = tested on: A498 renal
A549 NSCLC = tested on: A549 NSCLC
ACHN renal = tested on: ACHN renal
BT-549 breast = tested on: BT-549 breast
CAKI-1 renal = tested on: CAKI-1 renal
CCRF-CEM leukemia = tested on: CCRF-CEM leukemia
COLO 205 colon = tested on: COLO 205 colon
DU-145 prostate = tested on: DU-145 prostate
HCC-2998 colon = tested on: HCC-2998 colon
HCT-116 colon = tested on: HCT-116 colon
HCT-15 colon = tested on: HCT-15 colon
HL-60(TB) leukemia = tested on: HL-60(TB) leukemia
HOP-62 NSCLC = tested on: HOP-62 NSCLC
HOP-92 NSCLC = tested on: HOP-92 NSCLC
HS 578T breast = tested on: HS 578T breast
HT29 colon = tested on: HT29 colon
IGROV1 ovarian = tested on: IGROV1 ovarian
K-562 leukemia = tested on: K-562 leukemia
KM12 colon = tested on: KM12 colon
LOX IMVI melanoma = tested on: LOX IMVI melanoma
M14 melanoma = tested on: M14 melanoma
MALME-3M melanoma = tested on: MALME-3M melanoma
MCF7 breast = tested on: MCF7 breast
MDA-MB-231 breast = tested on: MDA-MB-231 breast
MDA-MB-435 = tested on: MDA-MB-435
MOLT-4 leukemia = tested on: MOLT-4 leukemia
NCI-H226 lung = tested on: NCI-H226 lung
NCI-H23 lung = tested on: NCI-H23 lung
NCI-H460 lung = tested on: NCI-H460 lung
NCI-H522 lung = tested on: NCI-H522 lung
NCI/ADR-RES ovarian = tested on: NCI/ADR-RES ovarian
OVCAR-3 ovarian = tested on: OVCAR-3 ovarian
OVCAR-4 ovarian = tested on: OVCAR-4 ovarian
OVCAR-5 ovarian = tested on: OVCAR-5 ovarian
OVCAR-8 ovarian = tested on: OVCAR-8 ovarian
PC-3 prostate = tested on: PC-3 prostate
RPMI-8226 leukemia = tested on: RPMI-8226 leukemia
RXF 393 renal = tested on: RXF 393 renal
SF-268 CNS = tested on: SF-268 CNS
SF-295 CNS = tested on: SF-295 CNS
SF-539 CNS = tested on: SF-539 CNS
SK-MEL-2 melanoma = tested on: SK-MEL-2 melanoma
SK-MEL-28 melanoma = tested on: SK-MEL-28 melanoma
SK-MEL-5 melanoma = tested on: SK-MEL-5 melanoma
SK-OV-3 ovarian = tested on: SK-OV-3 ovarian
SN12C renal = tested on: SN12C renal
SNB-19 CNS = tested on: SNB-19 CNS
SNB-75 CNS = tested on: SNB-75 CNS
SR leukemia = tested on: SR leukemia
SW-620 colon = tested on: SW-620 colon
T-47D breast = tested on: T-47D breast
TK-10 renal = tested on: TK-10 renal
U251 CNS = tested on: U251 CNS
UACC-257 melanoma = tested on: UACC-257 melanoma
UACC-62 melanoma = tested on: UACC-62 melanoma
UO-31 renal = tested on: UO-31 renal

COc1cc(-c2cc(/C=C3\C(=O)Nc4ccc(Cl)cc43)[nH]n2)cc(OC)c1OC
27.9 µM: TGI (SNB-75 CNS)
34.4 µM: TGI (SF-295 CNS)
14.5 µM: TGI (NCI-H522 lung)
14.9 µM: TGI (COLO 205 colon)
26.7 µM: TGI (CCRF-CEM leukemia)
8.87 µM: TGI (MOLT-4 leukemia)
15.2 µM: TGI (ACHN renal)
6.82 µM: TGI (HL-60(TB) leukemia)
69.3 µM: TGI (HCT-116 colon)
> 100 µM: TGI (786-0 renal) | TGI (A549 NSCLC) | TGI (DU-145 prostate) | TGI (HCC-2998 colon) | TGI (HCT-15 colon) | TGI (HOP-62 NSCLC) | TGI (HS 578T breast) | TGI (IGROV1 ovarian) | TGI (K-562 leukemia) | TGI (KM12 colon) | TGI (MCF7 breast) | TGI (MDA-MB-231 breast) | TGI (MDA-MB-435) | TGI (NCI-H23 lung) | TGI (NCI-H460 lung) | TGI (NCI/ADR-RES ovarian) | TGI (OVCAR-4 ovarian) | TGI (OVCAR-5 ovarian) | TGI (OVCAR-8 ovarian) | TGI (RXF 393 renal) | TGI (SF-268 CNS) | TGI (SK-OV-3 ovarian) | TGI (SN12C renal) | TGI (SNB-19 CNS) | TGI (SW-620 colon) | TGI (U251 CNS)
45.1 µM: TGI (HT29 colon)
18.9 µM: TGI (PC-3 prostate)
26.5 µM: TGI (NCI-H226 lung)
11.6 µM: TGI (UACC-257 melanoma)
20.5 µM: TGI (CAKI-1 renal)
23.6 µM: TGI (UO-31 renal)
3.22 µM: TGI (SK-MEL-5 melanoma)
14 µM: TGI (M14 melanoma)
22.7 µM: TGI (LOX IMVI melanoma)
3.9 µM: TGI (UACC-62 melanoma)
16.8 µM: TGI (HOP-92 NSCLC)
92.7 µM: TGI (TK-10 renal)
7.16 µM: TGI (BT-549 breast)
21 µM: TGI (SK-MEL-2 melanoma)
12.7 µM: TGI (SR leukemia)
4.81 µM: TGI (RPMI-8226 leukemia)
inactive: GI50 (786-0 renal) 15.2 µM | GI50 (A498 renal) 1.07 µM | GI50 (A549 NSCLC) 7.08 µM | GI50 (ACHN renal) 3.46 µM | GI50 (BT-549 breast) 2.52 µM | GI50 (CAKI-1 renal) 2.82 µM | GI50 (CCRF-CEM leukemia) 3.02 µM | GI50 (COLO 205 colon) 2.92 µM | GI50 (DU-145 prostate) 9.54 µM | GI50 (HCC-2998 colon) 64 µM | GI50 (HCT-116 colon) 4.7 µM | GI50 (HCT-15 colon) 3.6 µM | GI50 (HL-60(TB) leukemia) 2.26 µM | GI50 (HOP-62 NSCLC) 5.14 µM | GI50 (HOP-92 NSCLC) 1.45 µM | GI50 (HS 578T breast) 5.03 µM | GI50 (HT29 colon) 7.54 µM | GI50 (IGROV1 ovarian) 6.34 µM | GI50 (K-562 leukemia) 4.05 µM | GI50 (KM12 colon) 3.3 µM | GI50 (LOX IMVI melanoma) 3.45 µM | GI50 (M14 melanoma) 3.09 µM | GI50 (MALME-3M melanoma) 2.71 µM | GI50 (MCF7 breast) 3.15 µM | GI50 (MDA-MB-231 breast) 4.41 µM | GI50 (MDA-MB-435) 3.97 µM | GI50 (MOLT-4 leukemia) 2.7 µM | GI50 (NCI-H226 lung) 3.84 µM | GI50 (NCI-H23 lung) 4.95 µM | GI50 (NCI-H460 lung) 5.03 µM | GI50 (NCI-H522 lung) 3.12 µM | GI50 (NCI/ADR-RES ovarian) 3.73 µM | GI50 (OVCAR-3 ovarian) 6.16 µM | GI50 (OVCAR-4 ovarian) 5.11 µM | GI50 (OVCAR-5 ovarian) 27.9 µM | GI50 (OVCAR-8 ovarian) 4.31 µM | GI50 (PC-3 prostate) 2.51 µM | GI50 (RPMI-8226 leukemia) 1.88 µM | GI50 (RXF 393 renal) 9.21 µM | GI50 (SF-268 CNS) 35.3 µM | GI50 (SF-295 CNS) 3.96 µM | GI50 (SF-539 CNS) 6.7 µM | GI50 (SK-MEL-2 melanoma) 3.52 µM | GI50 (SK-MEL-28 melanoma) 7.37 µM | GI50 (SK-MEL-5 melanoma) 1.46 µM | GI50 (SK-OV-3 ovarian) 49.3 µM | GI50 (SN12C renal) 5.72 µM | GI50 (SNB-19 CNS) 5.04 µM | GI50 (SNB-75 CNS) 3.44 µM | GI50 (SR leukemia) 3.06 µM | GI50 (SW-620 colon) 6.1 µM | GI50 (T-47D breast) 2.6 µM | GI50 (TK-10 renal) 8.15 µM | GI50 (U251 CNS) 5.37 µM | GI50 (UACC-257 melanoma) 2.7 µM | GI50 (UACC-62 melanoma) 1.73 µM | GI50 (UO-31 renal) 2.81 µM
71.6 µM: TGI (OVCAR-3 ovarian)
8.63 µM: TGI (MALME-3M melanoma)
26.3 µM: TGI (SF-539 CNS)
7.24 µM: TGI (A498 renal)
18.3 µM: TGI (T-47D breast)
72.4 µM: TGI (SK-MEL-28 melanoma)
